How the values were obtained:
AHR [1] = biological target: T1, AHR (Rattus norvegicus, UniProt P41738); assay: AHR-dependent Cyp1A1 expression (P450-Glo) in rat H411E hepatoma cells stimulated with L-kynurenine; format: cell-based; details: 100 μM L-kynurenine, 24 hours
T1 construct: In rat hepatoma H411E cells treated with 100 μM L-kynurenine; endogenous in cells; host or cells: H411E rat hepatoma cells
T1 sequence (P41738 10-853): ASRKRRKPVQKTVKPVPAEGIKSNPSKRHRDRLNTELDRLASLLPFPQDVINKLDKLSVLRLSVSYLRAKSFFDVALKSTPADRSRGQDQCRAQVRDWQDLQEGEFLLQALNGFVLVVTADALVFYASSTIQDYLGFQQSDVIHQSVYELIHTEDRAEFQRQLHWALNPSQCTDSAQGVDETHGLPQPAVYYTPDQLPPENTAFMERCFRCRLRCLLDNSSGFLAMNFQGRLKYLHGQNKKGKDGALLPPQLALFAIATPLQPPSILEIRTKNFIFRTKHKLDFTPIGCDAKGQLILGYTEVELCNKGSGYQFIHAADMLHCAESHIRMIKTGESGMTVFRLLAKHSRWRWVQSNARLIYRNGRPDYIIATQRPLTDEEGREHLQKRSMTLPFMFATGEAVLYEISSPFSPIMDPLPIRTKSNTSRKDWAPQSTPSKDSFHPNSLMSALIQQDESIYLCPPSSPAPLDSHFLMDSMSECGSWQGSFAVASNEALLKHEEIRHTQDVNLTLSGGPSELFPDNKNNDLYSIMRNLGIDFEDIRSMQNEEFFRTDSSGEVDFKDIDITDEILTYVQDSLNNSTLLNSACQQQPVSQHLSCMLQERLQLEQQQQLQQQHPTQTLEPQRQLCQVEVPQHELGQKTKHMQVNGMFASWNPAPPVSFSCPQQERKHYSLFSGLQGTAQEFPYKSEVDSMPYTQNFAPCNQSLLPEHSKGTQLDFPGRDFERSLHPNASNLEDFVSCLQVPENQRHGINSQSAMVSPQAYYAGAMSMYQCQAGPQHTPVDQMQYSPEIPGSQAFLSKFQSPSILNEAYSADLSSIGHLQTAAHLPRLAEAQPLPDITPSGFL
Experimental: The ability of Compound A to inhibit AHR-dependent Cyp1A1 gene expression was examined in vitro by measuring changes in Cyp1A1 enzymatic activity in 2 rodent hepatoma cell lines following AHR agonist stimulation. Mouse Hepa1.6 and rat H411E hepatoma cells were treated with AHR agonists VAF347 and L-kynurenine, respectively, in the presence of Compound A at multiple concentrations for 24 hours. The inhibition of Cyp1A1 expression was subsequently evaluated by measuring Cyp1A1 enzyme activity using P450-Glo assays.

AHR [2] = biological target: T2, AHR (Homo sapiens, UniProt P35869); assay: IL-22 secretion by CD3/CD28 activated human T cells (Meso Scale Discovery); format: cell-based; set-up: endogenous in cells; details: 48 hours
T2 sequence (P35869 11-848): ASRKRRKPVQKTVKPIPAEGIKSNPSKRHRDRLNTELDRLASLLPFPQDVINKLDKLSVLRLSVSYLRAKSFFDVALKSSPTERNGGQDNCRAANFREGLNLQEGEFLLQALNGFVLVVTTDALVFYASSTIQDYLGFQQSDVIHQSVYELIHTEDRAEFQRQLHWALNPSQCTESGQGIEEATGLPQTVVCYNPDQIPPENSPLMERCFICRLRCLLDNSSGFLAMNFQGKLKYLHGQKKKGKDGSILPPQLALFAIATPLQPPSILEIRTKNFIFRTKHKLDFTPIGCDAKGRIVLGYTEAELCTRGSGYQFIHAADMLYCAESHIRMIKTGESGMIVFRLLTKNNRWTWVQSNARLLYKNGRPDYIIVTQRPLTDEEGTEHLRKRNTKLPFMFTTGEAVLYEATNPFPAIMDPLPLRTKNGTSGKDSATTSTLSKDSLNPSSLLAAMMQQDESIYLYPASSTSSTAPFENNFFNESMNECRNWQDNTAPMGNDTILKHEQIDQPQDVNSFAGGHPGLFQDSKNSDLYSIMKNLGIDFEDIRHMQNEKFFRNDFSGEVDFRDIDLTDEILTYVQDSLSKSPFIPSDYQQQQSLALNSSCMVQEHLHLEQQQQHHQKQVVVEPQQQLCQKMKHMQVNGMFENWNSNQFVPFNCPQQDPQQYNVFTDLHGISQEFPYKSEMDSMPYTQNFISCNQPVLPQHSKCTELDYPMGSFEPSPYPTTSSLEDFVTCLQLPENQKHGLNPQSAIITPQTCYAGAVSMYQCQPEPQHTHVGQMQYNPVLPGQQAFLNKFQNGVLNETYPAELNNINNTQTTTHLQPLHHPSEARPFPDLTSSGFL
Experimental: (§1) AHR plays a key role in immune cells and its' inhibition is proposed to reverse immune suppression and activate T cells. The ability of Compound A to inhibit AHR-dependent CYP1A1 expression and cytokine production was assessed in primary human T cells. AHR directly regulates the expression of the immune suppressive cytokine IL-22. Human T cells isolated from healthy donor PBMCs were activated with CD3/CD28 tetramer and incubated for 24 hours with Compound A. Cell pellets were processed for RNA isolation and CYP1A1 analysis by quantitative reverse-transcriptase polymerase chain reaction. For the cytokine analysis assay, CD3/CD28 activated T cells were treated with Compound A, and culture supernatants were collected after 48 hours for analysis of IL-22 levels using Meso Scale Discovery V-plex IL-22 plates. Compound A inhibited AHR-dependent gene expression in activated human T cells by decreasing expression of CYP1A1 in a concentration-dependent manner.

AHR [3] = biological target: T2, AHR; assay: CYP1A1 expression in CD3/CD28 activated human T cells (qRT-PCR); format: cell-based; set-up: endogenous in cells; details: 24 hours
Experimental: as §1

AHR [4] = biological target: T2, AHR; assay: Phase 1 study: pharmacodynamic modulation of AHR target genes in a whole blood assay; format: in vivo; set-up: endogenous in cells; details: all subjects in the 200 mg, 400 mg, and 800 mg cohorts
Text: Because the starting dose and any higher dose is expected to be near or at the pharmacologically active range, each subject is required to have blood drawn and tumor biopsies for secondary and exploratory pharmacodynamic endpoints. The blood and tumor tissue samples are used to confirm AHR target engagement. Individual subjects can be exempted from the tumor biopsy requirement upon discussion and prior agreement by the Sponsor. The initial sampling strategy is based on the predicted human pharmacodynamics of this compound. If in the course of evaluating the pharmacodynamics, it is determined that an alternative sampling scheme would be more informative, then that alternative sampling scheme can be implemented if the total amount of blood, blood draws, and tumor biopsies obtained for pharmacodynamics is not increased. Moreover, the total number of samples can be decreased at any time if the initial sampling scheme is considered unnecessarily intensive.
Pharmacodynamic (PD) modulation of AHR target genes were analyzed in a whole blood assay.

How did the IC50 (AHR [1]) turn out when `CC(C)c1cnn2c(N[C@@H]3CCc4[nH]c5ccccc5c4C3)nc(-c3cncc(F)c3)nc12` [Compound A, (R)—N-(2-(5-fluoropyridin-3-yl)-8-isopropylpyrazolo[1,5-a][1,3,5]triazin-4-yl)-2,3,4,9-tetrahydro-1H-carbazol-3-amine] was run?
The IC50 was 151 nM.

What about the IC50 (AHR [2]) of the same compound?
The IC50 was 7 nM.

And the IC50 (AHR [3])?
Its IC50 is 63 nM.

What about the “inhibition of expression of AHR target gene CYP1B1” value (AHR [4]) of the same compound?
Its value is “Robust inhibition”.

Source: patent US20230026232A1, “AHR INHIBITORS AND USES THEREOF” (Ikena Oncology, Inc., priority 2019, published 2023)
